We go through 25 compounds from patent US20260015360A1 (MOMA Therapeutics, Inc., priority 2023, published 2026).

For experiment [1], the system named is DLD1 WT cells. The experiment can be described thus: DLD1 viability assay (CellTiter-Glo, 7 days), DLD1 WT. In kind it is cell-based. As to conditions: Homo sapiens, DLD-1, 168 h.
The test system of experiment [2] is DLD1 BRCA2 (−/−) cells. Kind of experiment: DLD1 viability assay (CellTiter-Glo, 7 days), DLD1 BRCA2 (−/−). As to conditions: Homo sapiens, DLD-1, 168 h, read-out: Viability IC50 (μM) DLD1 BRCA2 null. In kind it is cell-based.
For experiment [3], the target named is T1, biotinylated Avi-POLΘ[2-894] (Homo sapiens, UniProt O75417).
T1 construct: 1 nM biotinylated Avi-POLΘ[2-894]
The experiment can be described thus: ATPase assay (ADP-Glo): POLΘ-mediated ATP hydrolysis. As to conditions: read-out: Biochemical ATPase ADPGlo IC50.

Bounds are passed on as bounds.

T1 sequence (O75417 2-894 limits assumed): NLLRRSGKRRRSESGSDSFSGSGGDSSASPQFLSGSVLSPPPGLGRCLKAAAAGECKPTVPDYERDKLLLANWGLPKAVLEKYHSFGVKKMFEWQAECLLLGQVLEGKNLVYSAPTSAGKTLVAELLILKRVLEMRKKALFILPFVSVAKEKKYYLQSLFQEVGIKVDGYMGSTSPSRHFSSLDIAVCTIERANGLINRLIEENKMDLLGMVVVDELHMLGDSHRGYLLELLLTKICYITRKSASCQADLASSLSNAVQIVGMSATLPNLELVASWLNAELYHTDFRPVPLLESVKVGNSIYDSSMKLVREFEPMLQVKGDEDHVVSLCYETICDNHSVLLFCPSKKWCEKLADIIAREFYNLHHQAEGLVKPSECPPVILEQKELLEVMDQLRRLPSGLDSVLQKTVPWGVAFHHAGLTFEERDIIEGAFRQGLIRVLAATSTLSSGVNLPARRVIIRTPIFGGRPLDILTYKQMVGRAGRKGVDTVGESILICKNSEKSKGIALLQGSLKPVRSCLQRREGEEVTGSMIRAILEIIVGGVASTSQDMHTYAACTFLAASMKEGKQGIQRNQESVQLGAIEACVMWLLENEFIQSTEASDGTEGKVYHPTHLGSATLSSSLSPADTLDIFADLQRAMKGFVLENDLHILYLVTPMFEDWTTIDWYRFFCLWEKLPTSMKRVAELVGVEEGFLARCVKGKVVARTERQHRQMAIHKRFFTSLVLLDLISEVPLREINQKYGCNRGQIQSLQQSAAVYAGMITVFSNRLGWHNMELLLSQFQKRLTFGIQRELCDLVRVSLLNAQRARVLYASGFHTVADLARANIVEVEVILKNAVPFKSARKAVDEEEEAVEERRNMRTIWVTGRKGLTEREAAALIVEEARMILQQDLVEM

For the compound `COc1cnc(Cl)cc1-c1cc(C)ncc1C(=O)Nc1nn2cc(C(=O)N[C@H]3CCCC[C@@H]3O)nc2s1` (racemic) [Example 281], the results for the IC50 in experiment [1], in experiment [2] and in experiment [3] were more than 10 µM, more than 2 µM and 1 to 15 nM, respectively.
Taken in the same sequence, the figures for `COc1cnc(Cl)cc1-c1cc(C)ncc1C(=O)Nc1nn2cc(C(=O)NC3CCC3)nc2s1` (racemic) [Example 288] were more than 10 µM, 0.25 to 0.5 µM and 1 to 15 nM.
Taken in the same sequence, the figures for `COc1cnc(Cl)cc1-c1cc(C)ncc1C(=O)Nc1nc2ncc(C3CCOC3)nc2s1` (racemic) [Example 510, (Racemic)-2′-chloro-5′-methoxy-6-methyl-N-(6-(tetrahydrofuran-3-yl)thiazolo[4,5-b]pyrazin-2-yl)-[4,4′-bipyridine]-3-carboxamide] were more than 10 µM, 0.1 to 0.25 µM and 1 to 15 nM.
Taken in the same sequence, the figures for `COc1cnc(Cl)cc1-c1cc(C)ncc1C(=O)Nc1nc2ncc(C34CCC(C#N)(CC3)CC4)nc2s1` (single isomer, unassigned) [Example 359, 2′-chloro-N-(6-(4-cyanobicyclo[2.2.2]octan-1-yl)thiazolo[4,5-b]pyrazin-2-yl)-5′-methoxy-6-methyl-[4,4′-bipyridine]-3-carboxamide] were more than 10 µM, 0.001 to 0.1 µM and 1 to 15 nM.
As to `COc1cnc(Cl)cc1-c1cc(C)ncc1C(=O)Nc1nc2ncc(C34CC(C#N)(C3)C4)nc2s1` (single isomer, unassigned) [Example 360, 2′-chloro-N-(6-(3-cyanobicyclo[1.1.1]pentan-1-yl)thiazolo[4,5-b]pyrazin-2-yl)-5′-methoxy-6-methyl-[4,4′-bipyridine]-3-carboxamide], the IC50 in experiment [1] is more than 10 µM; in experiment [2], 0.001 to 0.1 µM; in experiment [3], 1 to 15 nM.
The like results for `COc1cnc(Cl)cc1-c1cc(C)ncc1C(=O)Nc1nc2ncc(C3CC4CC3CC4C#N)nc2s1` (single isomer, unassigned) [Example 361, 2′-chloro-N-(6-(5-cyanobicyclo[2.2.1]heptan-2-yl)thiazolo[4,5-b]pyrazin-2-yl)-5′-methoxy-6-methyl-[4,4′-bipyridine]-3-carboxamide] were, in that order, more than 10 µM, 0.001 to 0.1 µM and 1 to 15 nM.
`COc1cnc(Cl)cc1-c1cc(C)ncc1C(=O)Nc1nc2ncc([C@@H]3CC4CC3C[C@H]4C#N)nc2s1` (single isomer, unassigned) [Example 361A, 2′-chloro-N-(6-((2R or S,5R or S)-5-cyanobicyclo[2.2.1]heptan-2-yl)thiazolo[4,5-b]pyrazin-2-yl)-5′-methoxy-6-methyl-[4,4′-bipyridine]-3-carboxamide]: the IC50 in experiment [1] was more than 10 µM; in experiment [2] it was 0.001 to 0.1 µM; in experiment [3], 1 to 15 nM.
For the compound `COc1cnc(Cl)cc1-c1cc(C)ncc1C(=O)Nc1nc2ncc([C@H]3CC4CC3C[C@@H]4C#N)nc2s1` (single isomer, unassigned) [Example 361B, 2′-chloro-N-(6-((2S or R,5S or R)-5-cyanobicyclo[2.2.1]heptan-2-yl)thiazolo[4,5-b]pyrazin-2-yl)-5′-methoxy-6-methyl-[4,4′-bipyridine]-3-carboxamide], the IC50 in experiment [1] was more than 10 µM; in experiment [2], 0.001 to 0.1 µM; in experiment [3] it was 1 to 15 nM.
Regarding `COc1cnc(Cl)cc1-c1cc(C)ncc1C(=O)Nc1nc2ncc([C@@H]3CC4CC3C[C@@H]4C#N)nc2s1` (single isomer, unassigned) [Example 361C, 2′-chloro-N-(6-((2R or S,5S or R)-5-cyanobicyclo[2.2.1]heptan-2-yl)thiazolo[4,5-b]pyrazin-2-yl)-5′-methoxy-6-methyl-[4,4′-bipyridine]-3-carboxamide], the IC50 in experiment [1] was more than 10 µM; in experiment [2] it was 0.001 to 0.1 µM; in experiment [3], 1 to 15 nM.
Taken in the same sequence, the figures for `COc1cnc(Cl)cc1-c1cc(C)ncc1C(=O)Nc1nc2ncc([C@H]3CC4CC3C[C@H]4C#N)nc2s1` (single isomer, unassigned) [Example 361D, 2′-chloro-N-(6-((2S or R,5R or S)-5-cyanobicyclo[2.2.1]heptan-2-yl)thiazolo[4,5-b]pyrazin-2-yl)-5′-methoxy-6-methyl-[4,4′-bipyridine]-3-carboxamide] were more than 10 µM, 0.001 to 0.1 µM and 1 to 15 nM.
The like results for `COc1cnc(Cl)cc1-c1cc(C)ncc1C(=O)Nc1nc2ncc([C@@H]3CC[C@@H](CO)C3)nc2s1` (single isomer, unassigned) [Example 498, 2′-chloro-N-(6-((1R or S,3R and S)-3-(hydroxymethyl)cyclopentyl)thiazolo[4,5-b]pyrazin-2-yl)-5′-methoxy-6-methyl-[4,4′-bipyridine]-3-carboxamide] were, in that order, more than 10 µM, 0.001 to 0.1 µM and 1 to 15 nM.
For the compound `COc1cnc(Cl)cc1-c1cc(C)ncc1C(=O)Nc1nc2ncc(N3CC[C@H](OC)[C@H](F)C3)nc2s1` [Example 453, 2′-chloro-N-(6-((3R,4S)-3-fluoro-4-methoxypiperidin-1-yl)thiazolo[4,5-b]pyrazin-2-yl)-5′-methoxy-6-methyl-[4,4′-bipyridine]-3-carboxamide], in experiment [3], the IC50 lay in the range of 1 to 15 nM.
The same measure, in the same setting: as for `COc1cnc(Cl)cc1-c1cc(C)ncc1C(=O)Nc1nc2ncc(N3CC[C@@H](OC)[C@H](F)C3)nc2s1` [Example 456, 2′-chloro-N-(6-((3R,4R)-3-fluoro-4-methoxypiperidin-1-yl)thiazolo[4,5-b]pyrazin-2-yl)-5′-methoxy-6-methyl-[4,4′-bipyridine]-3-carboxamide], the figure is 1 to 15 nM; as for `COc1cnc(Cl)cc1-c1cc(C)ncc1C(=O)Nc1nc2ncc(N3CCC(N(C)C)CC3)nc2s1` [Example 469, 2′-chloro-N-(6-(4-(dimethylamino)piperidin-1-yl)thiazolo[4,5-b]pyrazin-2-yl)-5′-methoxy-6-methyl-[4,4′-bipyridine]-3-carboxamide], 1 to 15 nM; as for `CNC1CCN(c2cnc3nc(NC(=O)c4cnc(C)cc4-c4cc(Cl)ncc4OC)sc3n2)CC1` [Example 477, 2′-chloro-5′-methoxy-6-methyl-N-(6-(4-(methylamino)piperidin-1-yl)thiazolo[4,5-b]pyrazin-2-yl)-[4,4′-bipyridine]-3-carboxamide], 15 to 50 nM.
The same measure, in the same setting: for `COc1cnc(Cl)cc1-c1cc(C)ncc1C(=O)Nc1nc2ncc(N3CCCC3)nc2s1` [Example 484, 2′-chloro-5′-methoxy-6-methyl-N-(6-(pyrrolidin-1-yl)thiazolo[4,5-b]pyrazin-2-yl)-[4,4′-bipyridine]-3-carboxamide] the value was 1 to 15 nM.
On to `COc1cnc(Cl)cc1-c1cc(Oc2cc(N)cc(Cl)c2)ncc1C(=O)Nc1nn2cc(C3CC3)nc2s1` [Example 493, 6-(3-amino-5-chlorophenoxy)-2′-chloro-N-(6-cyclopropylimidazo[2,1-b][1,3,4]thiadiazol-2-yl)-5′-methoxy-[4,4′-bipyridine]-3-carboxamide], for which the IC50 in experiment [3] lay within 50 to 150 nM.
On the same count and under the same terms, as for `COc1cnc(Cl)cc1-c1cc(Oc2cccc(N)c2)ncc1C(=O)Nc1nn2cc(C3CC3)nc2s1` [Example 494, 6-(3-aminophenoxy)-2′-chloro-N-(6-cyclopropylimidazo[2,1-b][1,3,4]thiadiazol-2-yl)-5′-methoxy-[4,4′-bipyridine]-3-carboxamide], the figure is 15 to 50 nM; as for `COc1cnc(Cl)cc1-c1cc(Oc2cccc(NC(=O)OC(C)(C)C)c2)ncc1C(=O)Nc1nn2cc(C3CC3)nc2s1` [Example 495, tert-butyl (3-((2′-chloro-5-((6-cyclopropylimidazo[2,1-b][1,3,4]thiadiazol-2-yl)carbamoyl)-5′-methoxy-[4,4′-bipyridin]-2-yl)oxy)phenyl)carbamate], 150 to 900 nM.
Take `COc1cnc(Cl)cc1-c1cc(C)ncc1C(=O)Nc1nc2ncc(N3CC[C@H](CO)C3)nc2s1` [Example 500, (S)-2′-chloro-N-(6-(3-(hydroxymethyl)pyrrolidin-1-yl)thiazolo[4,5-b]pyrazin-2-yl)-5′-methoxy-6-methyl-[4,4'-bipyridine]-3-carboxamide]: the IC50 in experiment [3] was 15 to 50 nM.
On the same count and under the same terms, as for `COc1cnc(Cl)cc1-c1cc(C)ncc1C(=O)Nc1nc2ncc(N3CC[C@@H](CO)C3)nc2s1` [Example 501, (R)-2′-chloro-N-(6-(3-(hydroxymethyl)pyrrolidin-1-yl)thiazolo[4,5-b]pyrazin-2-yl)-5′-methoxy-6-methyl-[4,4′-bipyridine]-3-carboxamide], the figure is 1 to 15 nM; as for `COc1cnc(Cl)cc1-c1cc(C)ncc1C(=O)Nc1nc2ncc(N3CC(O)C3)nc2s1` [Example 503, 2′-chloro-N-(6-(3-hydroxyazetidin-1-yl)thiazolo[4,5-b]pyrazin-2-yl)-5′-methoxy-6-methyl-[4,4′-bipyridine]-3-carboxamide], 1 to 15 nM; as for `COc1cnc(Cl)cc1-c1cc(C)ncc1C(=O)Nc1nc2ncc(N3CC(CO)C3)nc2s1` [Example 505, 2′-chloro-N-(6-(3-(hydroxymethyl)azetidin-1-yl)thiazolo[4,5-b]pyrazin-2-yl)-5′-methoxy-6-methyl-[4,4′-bipyridine]-3-carboxamide], 1 to 15 nM.
The same measure, in the same setting: for `Cc1cc(-c2c3cnccc3nn2C)c(C(=O)Nc2nc3ncc(-c4ccncc4)nc3s2)cn1` [Example 513, 6-methyl-4-(2-methyl-2H-pyrazolo[4,3-c]pyridin-3-yl)-N-(6-(pyridin-4-yl)thiazolo[4,5-b]pyrazin-2-yl)nicotinamide] the value was 15 to 50 nM; for `Cc1cc(-c2nn(C)c3ccncc23)c(C(=O)Nc2nc3ncc(-c4ccncc4)nc3s2)cn1` [Example 517, 6-methyl-4-(1-methyl-1H-pyrazolo[4,3-c]pyridin-3-yl)-N-(6-(pyridin-4-yl)thiazolo[4,5-b]pyrazin-2-yl)nicotinamide], more than 900 nM.
